Where two headings read alike, the source gives them in different places.
Assays:
Pim-1 = Pim-1 (Homo sapiens (Human), UniProt P11309); assay: Pim-Mn enzyme assay (HTRF, 384-well), Pim-1; format: biochemical; settings: read-out: Pim-1-Mn IC50 IP
Pim-2 = Pim-2 (Homo sapiens (Human), UniProt Q9P1W9); assay: Pim-Mn enzyme assay (HTRF, 384-well), Pim-2; format: biochemical; settings: read-out: Pim-2-Mn IC50 IP
KMS-12-BM cell lines = assay: KMS12 #2 flow cytometry assay (phospho-BAD Ser112); format: cell-based; settings: Homo sapiens, 110 min; KMS-12-BM cells, pBAD Ser112 by flow cytometry, 110 min with compound; read-out: KMS-12-Flow IC50 IP
[1] = Pim-1 enzyme 5 pM, ATP 1.5 μM, BAD (S112) 0.5 μM, HTRF, 22-point curve
[2] = Pim-2 enzyme 0.5 pM, ATP 1.5 μM, BAD (S112) 0.5 μM, HTRF, 22-point curve

Pim-2, sequence (Q9P1W9 whole entry): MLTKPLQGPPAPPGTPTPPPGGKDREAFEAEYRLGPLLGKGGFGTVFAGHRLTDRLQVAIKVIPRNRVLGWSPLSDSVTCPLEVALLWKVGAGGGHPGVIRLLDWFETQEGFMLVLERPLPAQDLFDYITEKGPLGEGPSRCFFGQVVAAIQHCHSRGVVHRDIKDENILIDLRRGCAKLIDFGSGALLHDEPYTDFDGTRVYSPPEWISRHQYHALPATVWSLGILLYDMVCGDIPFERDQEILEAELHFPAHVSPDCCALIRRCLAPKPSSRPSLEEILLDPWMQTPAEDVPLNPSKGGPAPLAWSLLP
Pim-1, sequence (P11309 whole entry): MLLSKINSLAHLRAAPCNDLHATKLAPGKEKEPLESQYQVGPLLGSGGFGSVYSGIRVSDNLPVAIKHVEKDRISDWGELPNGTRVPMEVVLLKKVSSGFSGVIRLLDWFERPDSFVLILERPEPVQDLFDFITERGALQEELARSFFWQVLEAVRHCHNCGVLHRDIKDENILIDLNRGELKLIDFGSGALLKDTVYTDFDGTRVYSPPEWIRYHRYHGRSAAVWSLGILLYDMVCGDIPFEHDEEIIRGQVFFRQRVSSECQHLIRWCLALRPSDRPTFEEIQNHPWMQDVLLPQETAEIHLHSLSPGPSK

| Structure (SMILES) | IC50 (Pim-1; [1]) [nM] | IC50 (Pim-2; [2]) [nM] | IC50 (KMS-12-BM cell lines) [nM] | IC50 (Pim-1) [nM] | IC50 (Pim-2) [nM] |
| --- | --- | --- | --- | --- | --- |
| Cc1nc2cccc(-c3c[nH]c(C(N)=O)c3)c2nc1NC(C)(C)C [Example 420, 4-(3-(tert-butylamino)-2-methyl-5-quinoxalinyl)-1H-pyrrole-2-carboxamide] | 26.5 | 34.8 | 9120 |  |  |
| Cc1nc2cccc(-c3cc4c([nH]3)CCNC4=O)c2nc1NC(C)(C)CN1CCOCC1 [Example 457, 2-(3-((1,1-dimethyl-2-(4-morpholinyl)ethyl)amino)-2-methyl-5-quinoxalinyl)-1,5,6,7-tetrahydro-4H-pyrrolo[3,2-c]pyridin-4-one] | 35.7 | 134 | 3490 |  |  |
| Cc1nc2cccc(-c3cc4c(=O)[nH]nc(C)c4[nH]3)c2nc1NC(C)(C)C [Example 416, 2-(3-(tert-butylamino)-2-methylquinoxalin-5-yl)-7-methyl-1H-pyrrolo[2,3-d]pyridazin-4(5H)-one] |  |  | 2950 | 7.63 | 15.8 |
| Cc1nc2cccc(-c3cc4c([nH]3)CCNC4=O)c2nc1-c1ccoc1 [Example 431, 2-(3-(Furan-3-yl)-2-methylquinoxalin-5-yl)-6,7-dihydro-1H-pyrrolo[3,2-c]pyridin-4(5H)-one] | 67.3 | 61.9 | 5060 |  |  |
| Cc1nc2cccc(-c3cc4c([nH]3)CCNC4=O)c2nc1-c1ccncc1Cl [Example 411, 2-(3-(3-chloro-4-pyridinyl)-2-methyl-5-quinoxalinyl)-1,5,6,7-tetrahydro-4H-pyrrolo[3,2-c]pyridin-4-one] | 66.5 | 239 | > 40000 |  |  |
| Cc1nc2cccc(-c3cc4c([nH]3)CCNC4=O)c2nc1NC(C)c1cnccn1 (stereo not drawn) [Example 322, 2-(2-methyl-3-((1-(pyrazin-2-yl)ethyl)amino)quinoxalin-5-yl)-6,7-dihydro-1H-pyrrolo[3,2-c]pyridin-4(5H)-one] | 94.6 | 163 | > 40000 |  |  |
| Cc1nc2cccc(-c3cc4c([nH]3)CCNC4=O)c2nc1-c1ccccn1 [Example 429, 2-(2-Methyl-3-(pyridin-2-yl)quinoxalin-5-yl)-6,7-dihydro-1H-pyrrolo[3,2-c]pyridin-4(5H)-one] | 212 | 167 | 8730 |  |  |
| CCOc1cnc2cccc(-c3cc4c([nH]3)CCNC4=O)c2n1 [Example 337, 2-(3-ethoxy-5-quinoxalinyl)-1,5,6,7-tetrahydro-4H-pyrrolo[3,2-c]pyridin-4-one] | 71.9 | 54.6 | 6920 |  |  |
| Cc1nc2cccc(-c3cc4c([nH]3)C(C)N(C(=O)OC(C)(C)C)C4=O)c2nc1NC(C)(C)C (stereo not drawn) [Example 316, tert-butyl 2-(3-(tert-butylamino)-2-methylquinoxalin-5-yl)-6-methyl-4-oxo-4,6-dihydropyrrolo[3,4-b]pyrrole-5(1H)-carboxylate] | 36 | 75 | 21500 |  |  |
| COCCN(CCOC)CCC(C)(C)Nc1nc2c(-c3cc4c([nH]3)CNC4=O)cccc2c(=O)n1C [Example 473, 2-((4-(bis(2-methoxyethyl)amino)-2-methylbutan-2-yl)amino)-3-methyl-8-(4-oxo-1,4,5,6-tetrahydropyrrolo[3,4-b]pyrrol-2-yl)quinazolin-4(3H)-one] | 11.4 | 36 | 12400 |  |  |

Further compounds by falling IC50 (Pim-1; [1]), results first:

| IC50 (Pim-1; [1]) [nM] | IC50 (Pim-2; [2]) [nM] | IC50 (KMS-12-BM cell lines) [nM] | Structure (SMILES) | IC50 (Pim-1) [nM] | IC50 (Pim-2) [nM] |
| --- | --- | --- | --- | --- | --- |
| 5.91 | 5.87 | 590 | CC(C)Nc1nc2c(-c3cc4c([nH]3)CCNC4=O)cccc2c(=O)n1-c1ccccc1 [Example 402, 2-((1-methylethyl)amino)-8-(4-oxo-4,5,6,7-tetrahydro-1H-pyrrolo[3,2-c]pyridin-2-yl)-3-phenyl-4(3H)-quinazolinone] |  |  |
| 4 | 3 | 344 | C[C@H](O)c1nc2cccc(-c3cc4c([nH]3)CCNC4=O)c2nc1NC(C)(C)C [Example 310, (S)-2-(3-(tert-butylamino)-2-(1-hydroxyethyl)quinoxalin-5-yl)-6,7-dihydro-1H-pyrrolo[3,2-c]pyridin-4(5H)-one] |  |  |
| 1.73 | 1.82 | 251 | Cc1nc2cccc(-c3cc4c([nH]3)[C@H](CO)NC4=O)c2nc1NC1(C)CC1 [Example 362, (R)-6-(hydroxymethyl)-2-(2-methyl-3-((1-methylcyclopropyl)amino)quinoxalin-5-yl)-5,6-dihydropyrrolo[3,4-b]pyrrol-4 (1H)-one] |  |  |
| 1.63 | 1.45 | 590 | C#Cc1nc2cccc(-c3cc4c([nH]3)CCNC4=O)c2nc1NC(C)(C)C [Example 307, 2-(3-(tert-butylamino)-2-ethynylquinoxalin-5-yl)-6,7-dihydro-1H-pyrrolo[3,2-c]pyridin-4(5H)-one] |  |  |
| 1.22 | 0.996 | 99.3 | Cc1nc2cccc(-c3cc4c([nH]3)CCNC4=O)c2nc1NCC1(C)CC1 [Example 335, 2-(2-Methyl-3-(((1-methylcyclopropyl)methyl)amino)-5-quinoxalinyl)-1,5,6,7-tetrahydro-4H-pyrrolo[3,2-c]pyridin-4-one] |  |  |
| 0.7 | 1.3 | > 40000 | Cc1nc2cccc(-c3cc4c([nH]3)CCNC4=O)c2nc1N[C@H]1C[C@@H](NCCS(C)(=O)=O)C1 [Example 441, 2-(2-Methyl-3-((cis-3-((2-(methylsulfonyl)ethyl)amino)cyclobutyl)amino)quinoxalin-5-yl)-6,7-dihydro-1H-pyrrolo[3,2-c]pyridin-4(5H)-one] |  |  |
| 0.625 | 0.874 | 1000 | Cc1nc2cccc(-c3[nH]c4c(c3Br)C(=O)NCC4)c2nc1NC(C)(C)C [Example 349, 3-bromo-2-(3-(tert-butylamino)-2-methyl-5-quinoxalinyl)-1,5,6,7-tetrahydro-4H-pyrrolo[3,2-c]pyridin-4-one] |  |  |
| 0.554 | 1.01 | 94 | C[C@H]1NC(=O)c2cc(-c3cccc4c(=O)n(C)c(OC5(C)CC5)nc34)[nH]c21 [Example 460, 3-methyl-2-((1-methylcyclopropyl)oxy)-8-((6R)-6-methyl-4-oxo-1,4,5,6-tetrahydropyrrolo[3,4-b]pyrrol-2-yl)-4(3H)-quinazolinone] |  |  |
| 0.195 | 0.201 | 46 | Cc1nc2cccc(-c3cc4c([nH]3)[C@H](C)NC4=O)c2nc1NC1(C)CC1 [Example 328, (6S)-6-methyl-2-(2-methyl-3-((1-methylcyclopropyl)amino)-5-quinoxalinyl)-5,6-dihydropyrrolo[3,4-b]pyrrol-4(1H)-one] |  |  |
| 0.185 | 0.183 | 8.42 | Cc1nc2cccc(-c3cc4c([nH]3)[C@@H](C)NC4=O)c2nc1NC1(C)CC1 [Example 333, (6R)-6-methyl-2-(2-methyl-3-((1-methylcyclopropyl)amino)-5-quinoxalinyl)-5,6-dihydropyrrolo[3,4-b]pyrrol-4(1H)-one] |  |  |
| 0.074 | 0.13 | 35 | C[C@H]1NC(=O)c2cc(-c3cccc4c(=O)n(C)c(NC5(C)CCC5)nc34)[nH]c21 [Example 465, 3-methyl-2-((1-methylcyclobutyl)amino)-8-((6R)-6-methyl-4-oxo-1,4,5,6-tetrahydropyrrolo[3,4-b]pyrrol-2-yl)-4(3H)-quinazolinone] |  |  |
